Experimental data from patent publication US6472348B1, “Pyridone derivatives and herbicides” (Kumiai Chemical Industry Co., Ltd., priority 1996, dated 2002).

Assays:
Type in all cases: in vivo
China jute (Ab) [1] = experiment: Test Example 6: crop plant selectivity by upland field soil treatment (soybean), herbicidal effects; set-up: scale not given here; settings: dose 6.3 g ai/10a, 21st day after application
How it was run: (§1)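 Soybean and weeds sown in sand-filled pots and covered with soil, then treated by soil application. Plants grown in a greenhouse, with herbicidal effect and crop phytotoxicity scored on day 21 after application against a fixed rating scale.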

slender amaranth (Am) [2] = experiment: as above; set-up: scale not given here; settings: dose 6.3 g ai/10a, 21st day after application
How it was run: as §1

pale smartweed (Po) [3] = experiment: as above; set-up: scale not given here; settings: dose 6.3 g ai/10a, 21st day after application
How it was run: as §1

green foxtail (Se) [4] = experiment: as above; set-up: scale not given here; settings: dose 6.3 g ai/10a, 21st day after application
How it was run: as §1

[5] = test system: common lambsquarters (Ch); experiment: as above; set-up: scale not given here; settings: dose 6.3 g ai/10a, 21st day after application
How it was run: as §1

corn (Ze) = experiment: Test Example 7: crop plant selectivity by upland field soil treatment (corn), phytotoxicity; set-up: scale not given here; settings: dose 6.3 g ai/10a, 21st day after application
How it was run: (§2)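 Corn and weeds (green foxtail, pale smartweed, slender amaranth, common lambsquarters, China jute) sown in sand-filled pots, covered with soil and treated by soil application. Grown in a greenhouse; herbicidal effect and crop phytotoxicity scored on day 21 after application using a fixed rating scale.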

rice flatsedge (Ci) [6] = experiment: Test Example 2: herbicidal effects by upland field soil treatment; settings: 100 g of the active ingredient per 10 ares, evaluated on the 21st day after application;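 further: grade of growth control; 5 = at least 90%; 4 = 70 to 90%; 3 = 50 to 70%; 2 = 30 to 50%; 1 = 10 to 30%; 0 = under 10%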
From the text: (§3) (Test on Herbicidal Effects by Upland Field Soil Treatment)

barnyardgrass (Ec) [7] = experiment: as above; settings: 100 g of the active ingredient per 10 ares, evaluated on the 21st day after application
From the text: as §3

slender amaranth (Am) [8] = experiment: as above; settings: 100 g of the active ingredient per 10 ares, evaluated on the 21st day after application
From the text: as §3

pale smartweed (Po) [9] = experiment: as above; settings: 100 g of the active ingredient per 10 ares, evaluated on the 21st day after application
From the text: as §3

Digitaria ciliaris (Di) = experiment: as above; settings: 100 g of the active ingredient per 10 ares, evaluated on the 21st day after application;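 further: grade of growth control; 5 = at least 90%; 4 = 70 to 90%; 3 = 50 to 70%; 2 = 30 to 50%; 1 = 10 to 30%; 0 = under 10%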
From the text: as §3

[10] = test system: common lambsquarters (Ch); experiment: as above; settings: 100 g of the active ingredient per 10 ares, evaluated on the 21st day after application
From the text: as §3

China jute (Ab) [11] = experiment: Test Example 5: crop plant selectivity by upland field soil treatment (wheat), herbicidal effects; set-up: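 grade of growth control; 5 = at least 90%; 4 = 70 to 90%; 3 = 50 to 70%; 2 = 30 to 50%; 1 = 10 to 30%; 0 = under 10%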; settings: dose 6.3 g ai/10a, 21st day after application
How it was run: (§4)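 Pots of sand sown with wheat and weeds (incl. Digitaria ciliaris, green foxtail, slender amaranth), seeds covered with soil, soil-applied treatment. Grown in greenhouse; herbicidal effect and crop phytotoxicity scored visually on day 21 after application against a rating scale.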

slender amaranth (Am) [12] = experiment: as above; set-up: scale not given here; settings: dose 6.3 g ai/10a, 21st day after application
How it was run: as §4

pale smartweed (Po) [13] = experiment: as above; set-up: scale not given here; settings: dose 6.3 g ai/10a, 21st day after application
How it was run: as §4

green foxtail (Se) [14] = experiment: as above; set-up: scale not given here; settings: dose 6.3 g ai/10a, 21st day after application
How it was run: as §4

[15] = test system: common lambsquarters (Ch); experiment: as above; set-up: scale not given here; settings: dose 6.3 g ai/10a, 21st day after application
How it was run: as §4

wheat (Tr) = experiment: Test Example 5: crop plant selectivity by upland field soil treatment (wheat), phytotoxicity; set-up: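 grade of crop injury; 5 = at least 90%; 4 = 70 to 90%; 3 = 50 to 70%; 2 = 30 to 50%; 1 = 10 to 30%; 0 = under 10%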; settings: dose 6.3 g ai/10a, 21st day after application
How it was run: as §4

soybean (Gl) = experiment: Test Example 6: crop plant selectivity by upland field soil treatment (soybean), phytotoxicity; set-up: scale not given here; settings: dose 6.3 g ai/10a, 21st day after application
How it was run: as §1

China jute (Ab) [16] = experiment: Test Example 4: crop plant selectivity by upland field soil treatment (cotton), herbicidal effects; set-up: scale not given here; settings: dose 6.3 g ai/10 a, evaluated 21st day after application
How it was run: (§5)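 Cotton is sown alongside weeds in pots of sand, covered with soil, and the soil surface is treated. After greenhouse growth, herbicidal activity and phytotoxicity are graded on the 21st day.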

slender amaranth (Am) [17] = experiment: as above; set-up: scale not given here; settings: dose 6.3 g ai/10 a, evaluated 21st day after application
How it was run: as §5

pale smartweed (Po) [18] = experiment: as above; set-up: scale not given here; settings: dose 6.3 g ai/10 a, evaluated 21st day after application
How it was run: as §5

green foxtail (Se) [19] = experiment: as above; set-up: scale not given here; settings: dose 6.3 g ai/10 a, evaluated 21st day after application
How it was run: as §5

[20] = test system: common lambsquarters (Ch); experiment: as above; set-up: scale not given here; settings: dose 6.3 g ai/10 a, evaluated 21st day after application
How it was run: as §5

China jute (Ab) [21] = experiment: Test Example 7: crop plant selectivity by upland field soil treatment (corn), herbicidal effects; set-up: scale not given here; settings: dose 6.3 g ai/10a, 21st day after application
How it was run: as §2

slender amaranth (Am) [22] = experiment: as above; set-up: scale not given here; settings: dose 6.3 g ai/10a, 21st day after application
How it was run: as §2

pale smartweed (Po) [23] = experiment: as above; set-up: scale not given here; settings: dose 6.3 g ai/10a, 21st day after application
How it was run: as §2

green foxtail (Se) [24] = experiment: as above; set-up: scale not given here; settings: dose 6.3 g ai/10a, 21st day after application
How it was run: as §2

[25] = test system: common lambsquarters (Ch); experiment: as above; set-up: scale not given here; settings: dose 6.3 g ai/10a, 21st day after application
How it was run: as §2

barnyardgrass (Ec) [26] = experiment: Test Example 1: herbicidal effects by paddy field soil treatment; settings: 100 g of the active ingredient per 10 ares, 21st day after the application, index 0-5 of Table 47;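 further: grade of growth control; 5 = at least 90%; 4 = 70 to 90%; 3 = 50 to 70%; 2 = 30 to 50%; 1 = 10 to 30%; 0 = under 10%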
How it was run: (§6)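 Scoring of herbicidal effect came 21 days after application of 100 g active ingredient per 10 ares to flooded (3 cm) paddy-soil pots sown with barnyardgrass, monochoria and bulrush, kept in a greenhouse.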

monochoria (Mo) = experiment: as above; settings: 100 g of the active ingredient per 10 ares, 21st day after the application, index 0-5 of Table 47;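 further: grade of growth control; 5 = at least 90%; 4 = 70 to 90%; 3 = 50 to 70%; 2 = 30 to 50%; 1 = 10 to 30%; 0 = under 10%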
How it was run: as §6

bulrush (Sc) = experiment: as above; settings: 100 g of the active ingredient per 10 ares, 21st day after the application, index 0-5 of Table 47
How it was run: as §6

rice flatsedge (Ci) [27] = experiment: Test Example 3: herbicidal effects by upland field foliage treatment; set-up: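 grade of growth control; 5 = at least 90%; 4 = 70 to 90%; 3 = 50 to 70%; 2 = 30 to 50%; 1 = 10 to 30%; 0 = under 10%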; settings: 100 g active ingredient per 10 ares, evaluated 14th day after treatment
How it was run: (§7)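 Test plants had been raised from seed for 2 weeks in a greenhouse, in soil-covered sand pots of 120 cm^2, and were returned there after spraying.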

Diaitaria ciliaris (Di) = experiment: as above; set-up: scale not given here; settings: 100 g active ingredient per 10 ares, evaluated 14th day after treatment
How it was run: as §7

barnyardgrass (Ec) [28] = experiment: as above; set-up: scale not given here; settings: 100 g active ingredient per 10 ares, evaluated 14th day after treatment
How it was run: as §7

slender amaranth (Am) [29] = experiment: as above; set-up: scale not given here; settings: 100 g active ingredient per 10 ares, evaluated 14th day after treatment
How it was run: as §7

pale smartweed (Po) [30] = experiment: as above; set-up: scale not given here; settings: 100 g active ingredient per 10 ares, evaluated 14th day after treatment
How it was run: as §7

[31] = test system: common lambsquarters (Ch); experiment: as above; set-up: scale not given here; settings: 100 g active ingredient per 10 ares, evaluated 14th day after treatment
How it was run: as §7

cotton (Go) = experiment: Test Example 4: crop plant selectivity by upland field soil treatment (cotton), phytotoxicity; set-up: scale not given here; settings: dose 6.3 g ai/10 a, evaluated 21st day after application
How it was run: as §5

SMILES | Herbicidal effects Ab (China jute (Ab) [1]) | Herbicidal effects Am (slender amaranth (Am) [2]) | Herbicidal effects Po (pale smartweed (Po) [3]) | Herbicidal effects Se (green foxtail (Se) [4]) | Herbicidal effects Ch [5] | Phytotoxicity Ze (corn (Ze)) | Herbicidal effects Ci (rice flatsedge (Ci) [6]) | Herbicidal effects Ec (barnyardgrass (Ec) [7]) | Herbicidal effects Am (slender amaranth (Am) [8]) | Herbicidal effects Po (pale smartweed (Po) [9]) | Herbicidal effects Di (Digitaria ciliaris (Di)) | Herbicidal effects Ch [10] | Herbicidal effects Ab (China jute (Ab) [11]) | Herbicidal effects Am (slender amaranth (Am) [12]) | Herbicidal effects Po (pale smartweed (Po) [13]) | Herbicidal effects Se (green foxtail (Se) [14]) | Herbicidal effects Ch [15] | Phytotoxicity Tr (wheat (Tr)) | Phytotoxicity Gl (soybean (Gl)) | Herbicidal effects Ab (China jute (Ab) [16]) | other results
CC(C)ON=Cc1cc(-c2ccc(C(F)(F)F)n(C)c2=O)c(F)cc1Cl [Compound 1-189] | 5 | 5 | 5 | 5 | 5 | 1 | 5 | 5 | 5 | 5 | 5 | 5 | 5 | 5 | 5 | 5 | 5 | 1 | 1 | 5 | Herbicidal effects Am (slender amaranth (Am) [17]): 5; Herbicidal effects Po (pale smartweed (Po) [18]): 5; Herbicidal effects Se (green foxtail (Se) [19]): 5; Herbicidal effects Ch [20]: 5; Herbicidal effects Ab (China jute (Ab) [21]): 5; Herbicidal effects Am (slender amaranth (Am) [22]): 5; Herbicidal effects Po (pale smartweed (Po) [23]): 5; Herbicidal effects Se (green foxtail (Se) [24]): 5; Herbicidal effects Ch [25]: 5; Herbicidal effects Ec (barnyardgrass (Ec) [26]): 5; Herbicidal effects Mo (monochoria (Mo)): 5; Herbicidal effects Sc (bulrush (Sc)): 5; Herbicidal effects Ci (rice flatsedge (Ci) [27]): 5; Herbicidal effects Di (Diaitaria ciliaris (Di)): 5; Herbicidal effects Ec (barnyardgrass (Ec) [28]): 5; Herbicidal effects Am (slender amaranth (Am) [29]): 5; Herbicidal effects Po (pale smartweed (Po) [30]): 5; Herbicidal effects Ch [31]: 5; Phytotoxicity Go (cotton (Go)): 0
CON=C(C)c1cc(-c2ccc(C(F)(F)F)n(C)c2=O)c(F)cc1Cl [Compound 1-192] | 5 | 5 | 5 | 5 | 5 | 2 | 5 | 5 | 5 | 5 | 5 | 5 | 5 | 5 | 5 | 5 | 5 | 2 | 1 | 5 | Herbicidal effects Am (slender amaranth (Am) [17]): 5; Herbicidal effects Po (pale smartweed (Po) [18]): 5; Herbicidal effects Se (green foxtail (Se) [19]): 5; Herbicidal effects Ch [20]: 5; Herbicidal effects Ab (China jute (Ab) [21]): 5; Herbicidal effects Am (slender amaranth (Am) [22]): 5; Herbicidal effects Po (pale smartweed (Po) [23]): 5; Herbicidal effects Se (green foxtail (Se) [24]): 5; Herbicidal effects Ch [25]: 5; Herbicidal effects Ec (barnyardgrass (Ec) [26]): 5; Herbicidal effects Mo (monochoria (Mo)): 5; Herbicidal effects Sc (bulrush (Sc)): 5; Herbicidal effects Ci (rice flatsedge (Ci) [27]): 5; Herbicidal effects Di (Diaitaria ciliaris (Di)): 5; Herbicidal effects Ec (barnyardgrass (Ec) [28]): 5; Herbicidal effects Am (slender amaranth (Am) [29]): 5; Herbicidal effects Po (pale smartweed (Po) [30]): 5; Herbicidal effects Ch [31]: 5; Phytotoxicity Go (cotton (Go)): 0
COc1cc(-c2ccc(C(F)(F)F)n(C)c2=O)c(Cl)cc1Cl [Compound 1-205] | 4 | 5 | 5 | 5 | 5 | 2 | 5 | 5 | 5 | 5 | 5 | 5 | 4 | 5 | 5 | 5 | 5 | 1 | 1 | 4 | Herbicidal effects Am (slender amaranth (Am) [17]): 5; Herbicidal effects Po (pale smartweed (Po) [18]): 5; Herbicidal effects Se (green foxtail (Se) [19]): 5; Herbicidal effects Ch [20]: 5; Herbicidal effects Ab (China jute (Ab) [21]): 4; Herbicidal effects Am (slender amaranth (Am) [22]): 5; Herbicidal effects Po (pale smartweed (Po) [23]): 5; Herbicidal effects Se (green foxtail (Se) [24]): 5; Herbicidal effects Ch [25]: 5; Herbicidal effects Ec (barnyardgrass (Ec) [26]): 5; Herbicidal effects Mo (monochoria (Mo)): 5; Herbicidal effects Sc (bulrush (Sc)): 5; Herbicidal effects Ci (rice flatsedge (Ci) [27]): 5; Herbicidal effects Di (Diaitaria ciliaris (Di)): 5; Herbicidal effects Ec (barnyardgrass (Ec) [28]): 5; Herbicidal effects Am (slender amaranth (Am) [29]): 5; Herbicidal effects Po (pale smartweed (Po) [30]): 5; Herbicidal effects Ch [31]: 5; Phytotoxicity Go (cotton (Go)): 1
COCCOCOc1cc(-c2ccc(C(F)(F)F)n(C)c2=O)c(F)cc1Cl [Compound 1-207] | 5 | 5 | 5 | 5 | 5 | 1 | 5 | 5 | 5 | 5 | 5 | 5 | 5 | 5 | 5 | 5 | 5 | 1 | 1 | 5 | Herbicidal effects Am (slender amaranth (Am) [17]): 5; Herbicidal effects Po (pale smartweed (Po) [18]): 5; Herbicidal effects Se (green foxtail (Se) [19]): 5; Herbicidal effects Ch [20]: 5; Herbicidal effects Ab (China jute (Ab) [21]): 5; Herbicidal effects Am (slender amaranth (Am) [22]): 5; Herbicidal effects Po (pale smartweed (Po) [23]): 5; Herbicidal effects Se (green foxtail (Se) [24]): 5; Herbicidal effects Ch [25]: 5; Herbicidal effects Ec (barnyardgrass (Ec) [26]): 5; Herbicidal effects Mo (monochoria (Mo)): 5; Herbicidal effects Sc (bulrush (Sc)): 5; Herbicidal effects Ci (rice flatsedge (Ci) [27]): 5; Herbicidal effects Di (Diaitaria ciliaris (Di)): 5; Herbicidal effects Ec (barnyardgrass (Ec) [28]): 5; Herbicidal effects Am (slender amaranth (Am) [29]): 5; Herbicidal effects Po (pale smartweed (Po) [30]): 5; Herbicidal effects Ch [31]: 5; Phytotoxicity Go (cotton (Go)): 0
